Results as given in patent US6835371B1 (priority 1997, dated 2004).
Where “and” joins values, the source holds several entries; their conditions need not be identical. Equal entries are not always repeated. Where two headings read alike, the source gives them in different places.

Legend:
[1] = molecular target: T1, human dopamine transporter (hDAT) (Homo sapiens, UniProt Q01959); experiment: cell-based
male Swiss-Webster mice [2] = experiment: animal or person; format: in vivo; conditions: for ED50: Mus musculus, read-out: ED50 (dose producing ½ maximal stimulant activity); for ED50 / Dose at estimated maximum effect / Doses with significant differences against the vehicle group (p<0.05): ip; for Maximal effect/cocaine maximal effect ratio (ME/CME) / Maximum effect, horizontal activity / Dose at estimated maximum effect / Doses with significant differences against the vehicle group (p<0.05): mouse, in vivo
[3] = molecular target: T2, human norepinephrine transporter (hNET) (Homo sapiens, UniProt P23975); experiment: biochemical; format: binding
[4] = molecular target: T2, human norepinephrine transporter (hNET); experiment: cell-based
[5] = molecular target: T1, human dopamine transporter (hDAT); experiment: biochemical; format: binding
male Swiss-Webster mice [6] = experiment: Cocaine interaction study (locomotor activity); format: in vivo; conditions: for AD50 (dose attenuating cocaine-induced stimulation by 50%): IP, 30-min period; for AD50 (dose attenuating cocaine-induced stimulation by 50%) / Doses with significant differences against the cocaine group (p<0.05): 20 mg/kg cocaine IP; for Doses with significant differences against the cocaine group (p<0.05): planned comparisons on log10 horizontal activity counts
[7] = read-out: [125I]RTI-55 binding Ki, NET
[8] = read-out: [125I]RTI-55 binding Ki, DAT
[9] = read-out: [3H]Dopamine Uptake IC50

T2 sequence (P23975 whole entry): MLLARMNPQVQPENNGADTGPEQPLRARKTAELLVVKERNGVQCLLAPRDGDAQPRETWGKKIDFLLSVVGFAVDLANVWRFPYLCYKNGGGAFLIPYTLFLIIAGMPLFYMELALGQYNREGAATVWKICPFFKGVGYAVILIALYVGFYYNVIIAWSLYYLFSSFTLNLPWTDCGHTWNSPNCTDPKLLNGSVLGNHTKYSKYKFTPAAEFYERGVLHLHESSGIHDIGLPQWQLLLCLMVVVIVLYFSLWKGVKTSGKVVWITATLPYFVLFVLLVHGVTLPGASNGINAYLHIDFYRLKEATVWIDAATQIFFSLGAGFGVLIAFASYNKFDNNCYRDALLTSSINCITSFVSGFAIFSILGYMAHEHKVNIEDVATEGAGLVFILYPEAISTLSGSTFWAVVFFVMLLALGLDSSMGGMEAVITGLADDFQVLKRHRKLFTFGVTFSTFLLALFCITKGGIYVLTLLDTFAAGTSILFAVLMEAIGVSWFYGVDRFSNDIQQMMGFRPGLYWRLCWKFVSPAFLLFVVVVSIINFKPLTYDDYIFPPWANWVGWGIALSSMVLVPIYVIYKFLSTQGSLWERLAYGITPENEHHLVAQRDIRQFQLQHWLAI
T1 sequence (Q01959 whole entry): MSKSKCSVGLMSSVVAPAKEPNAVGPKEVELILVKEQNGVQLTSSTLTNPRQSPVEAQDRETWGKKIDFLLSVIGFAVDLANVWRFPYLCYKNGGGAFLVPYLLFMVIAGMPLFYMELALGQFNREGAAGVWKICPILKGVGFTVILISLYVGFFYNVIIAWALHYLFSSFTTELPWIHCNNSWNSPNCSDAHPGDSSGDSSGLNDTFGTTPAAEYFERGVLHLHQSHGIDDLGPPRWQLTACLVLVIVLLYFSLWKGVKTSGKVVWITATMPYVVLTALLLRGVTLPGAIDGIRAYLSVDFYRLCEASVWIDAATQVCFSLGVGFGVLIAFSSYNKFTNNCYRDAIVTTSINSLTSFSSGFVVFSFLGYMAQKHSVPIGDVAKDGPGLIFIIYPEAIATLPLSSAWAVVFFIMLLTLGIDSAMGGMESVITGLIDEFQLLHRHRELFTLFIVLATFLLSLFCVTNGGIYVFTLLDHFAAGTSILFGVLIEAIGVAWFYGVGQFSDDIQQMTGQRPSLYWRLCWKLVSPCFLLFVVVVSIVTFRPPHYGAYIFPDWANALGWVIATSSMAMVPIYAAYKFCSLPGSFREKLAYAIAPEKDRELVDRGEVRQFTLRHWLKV

Structure (SMILES) | Discrimination Ratio DAT Binding/Reuptake [1] | Discrimination ratio uptake/binding (DA) [1] | IC50 [1] | Ki [1] | ED50 (male Swiss-Webster mice [2]) | Maximal effect/cocaine maximal effect ratio (ME/CME) (male Swiss-Webster mice [2]) | Maximum effect, horizontal activity (male Swiss-Webster mice [2]) | Dose at estimated maximum effect (male Swiss-Webster mice [2]) | Hill coefficient [3] | Ki ([3]; [125I]RTI-55 binding Ki, NET) | Ki [4] | IC50 ([4]; [3H]NE Uptake IC50) | IC50 ([4]; read-out: [3H]NE Uptake IC50) | Binding discrimination ratio NET/DAT [5] | Binding discrimination ratio SERT/DAT [5] | Hill coefficient [5] | Ki ([5]; [125I]RTI-55 binding Ki, DAT) | Doses with significant differences against the cocaine group (p<0.05) (male Swiss-Webster mice [6]) | Ki [3, 7] | Ki [5, 8] | other results
Fc1ccc(C(OCCCCN2CCN(c3ccccc3F)CC2)c2ccc(F)cc2)cc1 [Compound 31526] | 11.9 | 11.9 | 0.46 µM | 0.46 ± 0.14 µM | 0.015 mg/kg | 0.49 | 2716.1 counts/10 min | 0.64 mg/kg | −0.91 ± 0.09 | 0.417 µM | 0.7 ± 0.24 µM | 0.7 µM | 0.7 µM | 10.8 | 0.8 | −0.86 ± 0.06 | 0.0387 µM | – | – | – | Doses with significant differences against the vehicle group (p<0.05) (male Swiss-Webster mice [2]): 1 mg/kg; Attenuation of cocaine-induced locomotor activity (male Swiss-Webster mice [6]; 0.1-10 mg/kg IP 20 min before 20 mg/kg cocaine IP): did not attenuate locomotor activity induced by 20 mg/kg cocaine
OC1(c2ccc(Br)cc2)CCN(CCCCOC(c2ccc(F)cc2)c2ccc(F)cc2)CC1 [Compound 31530] | – | 110.5 | – | – | 2.42 mg/kg | 0.38 | 2132.6 counts/10 min | 6.00 mg/kg | −0.97 ± 0.30 | – | – | – | – | 64.1 | 9.7 | −0.59 ± 0.06 | 0.0039 µM and 0.01 µM | 30 mg/kg | – | – | IC50 ([1]; HEK-hDAT cells, read-out: [3H]Dopamine Uptake IC50): 0.431 µM; Ki ([1]; Table 2, read-out: Reuptake [3H]DA (Ki ± SD)): 0.431 ± 0.088 µM; IC50 ([4]; HEK-hNET cells, read-out: [3H]NE Uptake IC50): 1.87 µM; Ki ([4]; Table 2, read-out: Reuptake [3H]NE (Ki ± SD)): 1.87 ± 0.67 µM; AD50 (dose attenuating cocaine-induced stimulation by 50%) (male Swiss-Webster mice [6]): 15.75 mg/kg
Fc1ccc(C(OCCCCN2CCN(c3cccc(C(F)(F)F)c3)CC2)c2ccc(F)cc2)cc1 [Compound 31532] | 11.7 | 11.7 | 0.38 µM | 0.38 ± 0.13 µM | – | – | – | – | −0.80 ± 0.03 | 0.222 µM | 0.31 ± 0.1 µM | 0.31 µM | 0.31 µM | 6.8 | 6.8 | −0.87 ± 0.05 | 0.0325 µM | 100 mg/kg | 0.222 µM | 0.0325 µM | ID50 (dose producing ½ maximal depressant activity) (male Swiss-Webster mice [2]; IP, 20 min pretreatment, 0-30 min, descending portion 10 to 100 mg/kg): 112.95 mg/kg; Doses with significant differences against the vehicle group (p<0.05) (male Swiss-Webster mice [2]): 100 mg/kg; AD50 (dose attenuating cocaine-induced stimulation by 50%) (male Swiss-Webster mice [6]): 18.35 mg/kg
Fc1ccc(C(OCCCCN2CCNC(c3ccccc3)C2)c2ccc(F)cc2)cc1 (stereo not drawn) [Compound 31533] | – | 144.4 | – | 0.55 ± 0.14 µM | 1.52 mg/kg | 0.30 | 1648.6 counts/10 min | 10.26 mg/kg | – | – | 0.29 ± 0.13 µM | – | – | 49.9 | 19.6 | – | – | 30 mg/kg | – | – | –
OC1CCCN(CCCCOC(c2ccc(F)cc2)c2ccc(F)cc2)C1 (stereo not drawn) [Compound 31650] | 1.3 | – | – | – | – | – | – | – | −0.66 ± 0.05 | – | – | – | 0.31 µM | 6.7 | 4.8 | −0.82 ± 0.15 | – | – | 0.611 µM | 0.091 µM | IC50 [1, 9]: 0.114 µM
Fc1ccc(C(OCCCCN2CCN(c3cccc(Cl)c3)CC2)c2ccc(F)cc2)cc1 [Compound 31651] | 9.5 | – | – | – | – | – | – | – | – | – | – | – | 0.189 ± 0.089 µM | 1.7 | 0.8 | – | – | – | 0.3 ± 0.07 µM | 0.175 ± 0.071 µM | IC50 [1, 9]: 1.67 ± 0.44 µM
Fc1ccc(C(OCCCCN2CCN(c3ccc(Cl)cc3)CC2)c2ccc(F)cc2)cc1 [Compound 31652] | 23.4 | – | 1.17 µM | – | – | – | – | – | −0.80 ± 0.08 | 0.38 µM and 3.8 µM | – | 0.39 µM | 0.39 µM | 7.6 | 0.7 | −1.08 ± 0.18 | 0.05 µM | – | – | – | –
Fc1ccc(C(OCCCCN2CCN(c3ccccc3)CC2)c2ccc(F)cc2)cc1 [Compound 31653] | 23.2 | – | 1.41 µM | – | – | – | – | – | −0.93 ± 0.17 | 0.203 µM | – | 0.0563 µM | – | 3.3 | 0.8 | −1.14 ± 0.10 | 0.0609 µM | – | – | – | –
COc1ccccc1N1CCN(CCCCOC(c2ccc(F)cc2)c2ccc(F)cc2)CC1 [Compound 31654] | 11.5 | – | – | – | – | – | – | – | −0.59 ± 0.02 | – | – | – | 0.176 µM | 3.5 | 9.7 | −0.88 ± 0.09 | – | – | 0.092 µM | 0.0262 µM | IC50 [1, 9]: 0.301 µM
